From patent US20220090096A1 (priority 2019, published 2022)

Columns and labels:
[1] = system: catP reporter (Chloramphenicol Acetyl Transferase, CAT); assay type: cell-based, Clostridium sporogenes NCIMB 10696
[2] = system: Clostridium sporogenes; assay type: in vitro ADME; conditions: 2 mM in TYG medium; up to 20 hours
Description: To analyse if C. sporogenes consumes theophylline, 12 hour cultures were diluted to a staring OD600 of 0.01. At an OD600 of ≈0.5 cultures were induced with 2 mM theophylline. 1 mL samples were taken immediately and then at 2, 4, 6, 8, 10 and 20 hours after supplementation of theophylline. Samples were centrifuged for 10 min and 10000×g. Supernatants were used to determine the concentration of theophylline using an Alliance HT 2795 HPLC (Waters corporation) coupled to a Micromass Quattro LC Mass Spectrometer (Waters Wilmslow) in positive mode from m/z 70 to 500 for all samples at a scan rate of 1 cycle/s and equipped with an electrospray source. The general parameters were as follows: capillary voltage 2000 V, sampling cone 30 V, source temperature 130° C., desolvation temperature 350° C., cone gas flow 64 L/h and desolvation gas flow 621 L/h.
Prior to ionization, chromatographic separation was achieved using a Supelco Ascentis Express HPLC column (100 mm×3 mm, 2.7 μM, Sigma Aldrich). The mobile phase consisted of (A) water with 0.1% v/v formic acid and (B) methanol with 0.1% v/v formic acid. […]
As requisite of a good inducer, it was ascertained that theophylline is not metabolized by Clostridium sporogenes. […] The concentration of theophylline was monitored by HPLC/MS (high-performance liquid chromatography-mass spectrometry) analysis of cell-free supernatant samples over time.

[3] = system: C. sporogenes; assay type: cell-based, Clostridium sporogenes; conditions: theophylline 0.1-10 mM supplemented at time zero
Description: For growth experiments, pre-cultures grown for 12 hours were diluted to a starting OD600 of 0.01 with fresh medium containing different concentrations of the inducer theophylline (0-10 mM). Because theophylline is dissolved in DMSO, appropriate quantities of DMSO were added to all the cultures to account for any effect DMSO might have on growth.

Compound: Cn1c(=O)c2[nH]cnc2n(C)c1=O [theophylline]
- dose dependency of gene expression [1]: higher levels of gene expression
- concentration of theophylline in cell-free supernatant over time [2]: remains constant
- concentrations resulting in a reduction of growth [3]: higher than 5 mM
